According to US20060159780A1, “Prevention and amelioration of acetaminophen toxicity with tea melanin” (National Chiao Tung University, priority 2005, published 2006):

What was measured:
[1] = tested on: oxidized glutathione (GSSG); assay: Hepatic GSSG assay; format: in vivo, mice; conditions: NAPAP 400 mg/kg i.p. alone; liver, 24 h; mean ± SEM
Procedure: (§1) Adult male ICR mice (30±5 g) were employed for all experiments. Animals were housed under controlled condition (25±2° C.) and 12 h light/dark cycle, and allowed free access to food and water, but fasted overnight before treatment. Animals were divided into several groups including control group (not receiving any treatment), negative control (receiving TSM alone), positive control (receiving only NAPAP), and experimental groups receiving NAPAP and TSM together. Each experimental group consisted of 6 mice. NAPAP was dissolved in normal saline (pH 7.4) and administered inraperitonially (i.p.) with a dose of 400 mg/kg. TSM was dissolved in distillate water at pH 7.2 and administered i.p. with doses of 10, 20, 30, or 40 mg/kg 2 h before intoxication. All animals were sacrificed by ether anesthesia 24 h after the NAPAP exposure. […]
(§2) Frozen liver tissue was homogenized in 5% trichloroacetic acid (TCA) supplemented with 5 mM EDTA under a stream of nitrogen gas, then centrifuged at 20,000 g for 10 min at 4° C. […] The total hepatic glutathione level representing the sum of GSH and GSSG was determined using dithiobis-2-nitrobenzoic acid (Griffith, O. W. Anal. Biochem. 1980, 106, 207-212). The GSSG level was determined after elimination of GSH by reaction with 2-vinylpyridine, and the actual GSH level was calculated by subtracting the GSSG level from the total glutathione.

[2] = tested on: alanine aminotransferase (ALT) activity; assay: Alanine aminotransferase (ALT) activity in blood of NAPAP-intoxicated mice; format: in vivo; conditions: NAPAP 400 mg/kg i.p. alone; 24 h of exposure; mean ± SEM
Procedure: (§3) Adult male ICR mice (30±5 g) were employed for all experiments. Animals were housed under controlled condition (25±2° C.) and 12 h light/dark cycle, and allowed free access to food and water, but fasted overnight before treatment. Animals were divided into several groups including control group (not receiving any treatment), negative control (receiving TSM alone), positive control (receiving only NAPAP), and experimental groups receiving NAPAP and TSM together. Each experimental group consisted of 6 mice. NAPAP was dissolved in normal saline (pH 7.4) and administered inraperitonially (i.p.) with a dose of 400 mg/kg. TSM was dissolved in distillate water at pH 7.2 and administered i.p. with doses of 10, 20, 30, or 40 mg/kg 2 h before intoxication. All animals were sacrificed by ether anesthesia 24 h after the NAPAP exposure. Blood samples were withdrawn by cardiac puncture for determination of alanine aminotransferase (ALT) activity using commercially available kit (Sigma 505-P). Liver was isolated and perfused with normal saline to wash out the blood. It was then used for determination of GSH, oxidized glutathione (GSSG), superoxide dismutase (SOD), thiobarbituric acid reactive substances (TBARS), and reduced forms of coenzymes Q9 (CoQ9) and Q10 (CoQ10).

[3] = tested on: CoQ10; assay: Coenzymes Q assay in liver: CoQ10; format: in vivo, mice; conditions: NAPAP 400 mg/kg itself, FIG. 3
Procedure: as §3, with “It was then used for determination of GSH, oxidized glutathione (GSSG), superoxide dismutase (SOD), thiobarbituric acid reactive substances (TBARS), and reduced forms of coenzymes Q9 (CoQ9) and Q10 (CoQ10).” left out
(§4) Determination of reduced forms of CoQ9 and CoQ10 was carried out by the method of Ikenoya et al. (Ikenoya, S. et al., Chem Pharm Bull. 1981, 29, 158-164). […] The extract was analyzed using HPLC with Jasco 840 EC detector and Chemosorb ODS-H column (4.6×250 mm). […]

[4] = tested on: superoxide dismutase (SOD); assay: Superoxide dismutase assay in mouse liver; format: in vivo, mice; conditions: NAPAP alone, FIG. 2
Procedure: as §1
Determination of superoxide dismutase activity in mouse liver was based on inhibition of nitrite formation in reaction of oxidation of hydroxylammonium with superoxide anion radical (Elstner, E. F. and Heupel, A. Anal. Biochem. 1976, 70, 616-620). […] Optical absorbance at 530 nm was measured with Ultrospec III spectrophotometer (Pharmacia, LKB). The results were expressed as units of SOD activity calculated per milligram of protein.

[5] = tested on: antibody-forming cells (AFC) of splenocytes; assay: Antibody-producing response (AFC plaque assay) after SRBC sensitization; format: in vivo; conditions: NAPAP 400 mg/kg i.p.; SRBC-sensitized ICR mice
Procedure: Experiments were performed on 10 groups of intact ICR mice consisting of 4 animals each. The first 5 groups were injected i.p. with the following single doses of TSM: 0, 10, 20, 30, and 40 mg/kg. The second 5 groups were injected similarly to the first groups with TSM, but after 2 h animals were again injected (i.p.) with 400 mg/kg NAPAP. One day after administration of TSM or TSM+NAPAP, mice were injected into the tail vein with 1×10^8 sheep red blood cells (SRBC) prepared in 0.2 mL of saline. An additional 4 animals received only SRBC (antigen control). Four days after their sensitization with SRBC, animals were sacrificed, and their spleens were removed. Single splenocytes were prepared from each spleen in 5 mL of RPMI-1640 media. Enumeration of the antibody-forming cells (AFC) was performed using a plaque assay (Jerne, N. K. and Nordin, A. A. Science 1963, 140, 405). AFC values were calculated for 10^6 splenocytes.

[6] = tested on: CoQ9; assay: Coenzymes Q assay in liver: CoQ9; format: in vivo, mice; conditions: NAPAP 400 mg/kg itself, FIG. 3
Procedure: as §3, with “It was then used for determination of GSH, oxidized glutathione (GSSG), superoxide dismutase (SOD), thiobarbituric acid reactive substances (TBARS), and reduced forms of coenzymes Q9 (CoQ9) and Q10 (CoQ10).” left out
as §4

[7] = tested on: ICR mice; assay: Toxicity of NAPAP in mice: mortality and behaviour; format: in vivo
Procedure: as §3
The behavior of the animals in experimental group resembled the control group by movement activity. […]

[8] = tested on: hepatic GSH; assay: Hepatic GSH assay; format: in vivo, mice
Procedure: as §1, §2

## CC(=O)Nc1ccc(O)cc1 [NAPAP, N-Acetyl-p-aminophenol]
[1]
  GSSG: 3.2 ± 0.4 nmol/mg prot.
[2]
  ALT: 2043 U/L
[3]
  coenzyme Q10 content diminished, compared to negative control: 55%
[4]
  decrease of SOD activity as compared to control: ~4 fold
[5]
  suppression of AFC against the antigen control level: 26%
[6]
  content of CoQ9 diminished, compared to negative control: 60%
[7]; NAPAP 400 mg/kg administered alone
  Animal lethality: 66%
[7]; NAPAP 400 mg/kg i.p. alone, 24 h of exposure
  Mortality (dead/total): 2/6
[8]; NAPAP 400 mg/kg i.p. alone, liver, 24 h, mean ± SEM
  GSH: 13 ± 1 nmol/mg prot.
[8]; NAPAP alone, 24 h after administration
  depletion of GSH level as compared to control: 2.6 fold
